Molecules are shown by their SMILES. pIC50: −log10 of the molar value.

The target in the experiment is T1, androgen receptor (AR) (Homo sapiens, UniProt P10275, T878A).
T1 sequence (P10275 1-920 T878A): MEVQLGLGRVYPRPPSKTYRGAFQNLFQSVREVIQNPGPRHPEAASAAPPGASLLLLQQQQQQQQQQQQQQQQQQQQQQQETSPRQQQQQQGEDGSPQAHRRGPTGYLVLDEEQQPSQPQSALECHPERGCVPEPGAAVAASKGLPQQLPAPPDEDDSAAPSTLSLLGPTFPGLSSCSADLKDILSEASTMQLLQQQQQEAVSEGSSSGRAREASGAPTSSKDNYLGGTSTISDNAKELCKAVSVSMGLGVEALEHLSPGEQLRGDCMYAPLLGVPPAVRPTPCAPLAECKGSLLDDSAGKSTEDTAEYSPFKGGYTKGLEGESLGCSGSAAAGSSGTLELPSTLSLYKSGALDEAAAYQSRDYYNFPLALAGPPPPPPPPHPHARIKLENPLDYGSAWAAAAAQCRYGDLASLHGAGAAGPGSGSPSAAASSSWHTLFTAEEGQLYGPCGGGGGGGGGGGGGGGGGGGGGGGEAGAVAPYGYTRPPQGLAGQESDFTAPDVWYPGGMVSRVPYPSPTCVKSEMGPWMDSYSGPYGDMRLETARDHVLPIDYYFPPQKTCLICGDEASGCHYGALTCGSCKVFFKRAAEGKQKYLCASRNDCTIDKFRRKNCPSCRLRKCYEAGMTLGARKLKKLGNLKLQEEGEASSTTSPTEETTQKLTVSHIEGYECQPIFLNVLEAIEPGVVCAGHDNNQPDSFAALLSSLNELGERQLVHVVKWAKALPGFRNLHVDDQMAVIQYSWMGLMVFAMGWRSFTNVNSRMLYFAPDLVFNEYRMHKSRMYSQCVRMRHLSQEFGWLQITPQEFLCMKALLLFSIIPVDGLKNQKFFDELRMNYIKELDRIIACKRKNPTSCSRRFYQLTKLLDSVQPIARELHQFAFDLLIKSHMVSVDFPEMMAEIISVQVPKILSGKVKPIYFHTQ
Put plainly: Androgen-induced PSA (6.1 kb)-luciferase reporter assay in LNCaP cells (R1881 1 nM). It is filed as cell-based. On the set-up: endogenous in cells; host or cells: LNCaP. To be noted: 24 h, read-out: PSA-Luc IC50 Range. On the procedure:
The PSA (6.1 kb)-luciferase reporter contains functional AREs (androgen response elements) to which AR binds in response to androgen to induce luciferase activity. LNCaP cells were transiently transfected with the PSA (6.1 kb)-luciferase reporter for 24 h, and then pretreated with vehicle (DMSO) or indicated concentration of representative compounds for one hour prior to the addition of synthetic androgen, R1881 (1 nM). After 24 h of incubation with R1881, the cells were harvested, and relative luciferase activities were determined (FIG. 1). To determine the IC50, treatments were normalized to vehicle control activity induced by R1881 (Table 2).
Luciferase Assay: Cells were lysed using Passive Lysis Buffer (Promega) and then collected into V-bottom 96-well tissue culture plates. Lysates were centrifuged at 4° C. for 5 minutes at 3000 rpm. To measure luminescence of LNCaP cell lysates the Firefly Luciferase Assay System (Promega) was employed, according to manufacturer's protocol. Relative luminescence units (RLU) in cell lysates were detected for 10 seconds using Promega GloMax-Multi Detection Luminometer (Promega). Values were normalized to protein content. GraphPad Prism graphing software was used to calculate IC50 values.
Statistical analyses were performed using GraphPad Prism (Version 6.01 for Windows; La Jolla, Calif., USA). Comparisons between treatment and control groups were compared using Two-Way ANOVA with post-hoc Dunnett's and Tukey's tests. Differences were considered statistically significant at P values less than 0.05.
For orientation: In a reporter assay the amount or activity of a reporter protein is the signal.
One may read the pIC50 as the IC50 on a negative log10 scale, so that one unit is a factor of ten. As to `CC(C)(c1ccc(OCc2ccnc(NS(C)(=O)=O)n2)cc1)c1cc(Cl)c(N2CCC(CO)CC2)c(C#N)c1` [Compound A90], the pIC50 is 5.70 to 6.30. With `Cc1nc(NS(C)(=O)=O)ncc1COc1ccc(C(C)(C)c2cc(Cl)c(OCCCl)c(C#N)c2)cc1` [Compound A91], the pIC50 is 5.70 to 6.30. As for `Cn1nc(NS(C)(=O)=O)cc1COc1ccc(C(C)(C)c2cc(Cl)c(OCCCl)c(C#N)c2)cc1` [Compound A93], the pIC50 is 5.70 to 6.30. Take `CC(C)(c1ccc(OCc2cncnc2N)cc1)c1cc(Cl)c(OCCCl)c(C#N)c1` [Compound A94]: the pIC50 was 5.70 to 6.30. Turning to `CC(C)(c1ccc(OCc2nccnc2N)cc1)c1cc(Cl)c(OCCCl)c(C#N)c1` [Compound A95], the pIC50 was above 6.30.

As to `CC(C)(c1ccc(OCc2ccnc(NS(C)(=O)=O)c2N)cc1)c1cc(Cl)c(OCCCl)c(C#N)c1` [Compound A97], the pIC50 was above 6.30. In the case of `CC(C)(c1ccc(OCc2ncncc2N)cc1)c1cc(Cl)c(OCCCl)c(C#N)c1` [Compound A98], the pIC50 is 5.70 to 6.30.

As to `CC(C)(c1ccc(OCc2cnc(NS(C)(=O)=O)nc2N2CCCCC2)cc1)c1cc(Cl)c(OCCCl)c(C#N)c1` [Compound A99], the pIC50 is 5.70 to 6.30. As for `CC(C)(c1ccc(OCc2ccnc(NS(C)(=O)=O)n2)c(Cl)c1)c1cc(Cl)c(OCCCl)c(C#N)c1` [Compound A102], the figure is 5.70 to 6.30. On to `CC(C)(c1ccc(OCc2ccnc(NS(C)(=O)=O)n2)cc1)c1cnc(OCCCl)c(Cl)c1` [Compound A103], for which the pIC50 was below 5.70. Next, `CCCOc1ncc(C(C)(C)c2ccc(OCc3ccnc(NS(C)(=O)=O)n3)cc2)cc1Cl` [Compound A104]: below 5.70. As for `CC(C)(c1ccc(OCc2ccnc(NS(C)(=O)=O)n2)cc1)c1cnc(N2CCCCC2)c(Cl)c1` [Compound A105], the figure is below 5.70; as for `CC(C)(c1ccc(OCc2ccnc(NS(C)(=O)=O)n2)cc1)c1cnc(N2CC3(CCC3)C2)c(Cl)c1` [Compound A106], below 5.70; as for `CC(C)(c1ccc(-c2ccc3nc(NS(C)(=O)=O)nnc3c2)cc1)c1cc(Cl)c(OCCCl)c(C#N)c1` [Compound A108], below 5.70. `CC(C)(c1ccc(-c2ccc3ncncc3c2)cc1)c1cc(Cl)c(OCCCl)c(C#N)c1` [Compound A110]: the pIC50 is below 5.70.

Consider `CC(C)(c1ccc(-c2ccc3c(cnn3S(C)(=O)=O)c2)cc1)c1cc(Cl)c(OCCCl)c(C#N)c1` [Compound A111], for which the pIC50 is below 5.70. As for `CC(C)(c1ccc(-c2ccn3c(S(C)(=O)=O)c(N)nc3c2)cc1)c1cc(Cl)c(OCCCl)c(C#N)c1` [Compound A112], the figure is below 5.70; as for `CS(=O)(=O)Nc1nccc(COc2ccc3c(ccn3-c3ccn(CCCCl)c(=O)c3)c2)n1` [Compound A115], below 5.70; as for `CC(C)(c1ccc(Oc2cccc3nc(NS(C)(=O)=O)ncc23)cc1)c1cc(Cl)c(OCCCl)c(C#N)c1` [Compound A117], 5.70 to 6.30.

On to `CC(C)(c1ccc(OCc2cnc(NS(C)(=O)=O)nc2N2CCNCC2)cc1)c1cc(Cl)c(OCCCl)c(C#N)c1` [Compound A120], for which the pIC50 was above 6.30. With `CC(C)(c1ccc(-c2ccc3cnc(NS(C)(=O)=O)nc3c2)cc1)c1cc(Cl)c(OCCCl)c(C#N)c1` [Compound A121], the pIC50 is below 5.70.

For `CS(=O)(=O)Nc1ncc2cc(-c3ccc4c(ccn4-c4cc(Cl)c(OCCCl)c(C#N)c4)c3)ccc2n1` [Compound A122], the pIC50 was below 5.70. On to `CS(=O)(=O)N1CCN(Cc2ccc3c(ccn3-c3cc(Cl)c(OCCCl)c(C#N)c3)c2)CC1` [Compound A123], for which the pIC50 was below 5.70.

Turning to `CS(=O)(=O)N1CCN(CCc2ccc3c(ccn3-c3cc(Cl)c(OCCCl)c(C#N)c3)c2)CC1` [Compound A124], the pIC50 was 5.70 to 6.30. `CS(=O)(=O)N1CCN(CCc2ccc3c(ccn3-c3cc(Cl)c(OCCCl)c(C#N)c3)c2)C(=O)C1` [Compound A125]: the pIC50 is below 5.70. As for `Cn1nc(NC(=O)C(F)(F)F)cc1COc1ccc(C(C)(C)c2cc(Cl)c(OCCCl)c(C#N)c2)cc1` [Compound A127], the figure is 5.70 to 6.30.

The values above are taken from patent publication US20220380378A1 (ESSA Pharma, Inc., priority 2021, published 2022).
